{"source": "patent US7714006B1", "about": "“Methods of modifying the bioavailability of metaxalone” (King Pharmaceuticals Research & Development, Inc., priority 2001, dated 2010)", "assay": "Effects of age and gender on PK parameters, 1×800 mg data from study 103 and 2×400 mg data from study 105, fed and fasted", "assay_type": "in vivo, human", "details": "1×800 mg (103) + 2×400 mg (105)", "procedure": "The report is based primarily on two similarly designed studies in which PK parameters were determined under fed and fasted conditions for the 2×400 mg dose of metaxalone: • Study AN151607-103 (hereafter referred to as the 103 study): a four-period, randomized crossover trial with treatment conditions 2×400 mg with food, 2×400 mg without food, 1×800 mg with food, 1×800 mg without food; and • Study ELN151607-105 (hereafter referred to as the 105 study): a two-period, randomized crossover trial with treatment conditions 2×400 mg with food and 2×400 mg without food.\n(§1) These analyses are still based on the combined group of n=103 subjects (59 from study 103, 44 from study 105). However, the fed and fasted PK values from the 1×800 dosage of study 103 are used instead of the data from the 2×400 dosage.\nas §1, with “It is possible to somewhat independently assess the consistency of the results from Sections 3.2 and 3.3 by repeating the analyses using the 1×800 fed and fasted results from study 103. These” for “These”\nThe same regression modeling strategy as was described in Sections 3.2 and 3.3 was also used. […] The parameter estimates, standard errors, and p-values for the gender and age effects are shown below for the fed and fasted conditions in TABLE XIb: […]", "data": [{"smiles": "Cc1cc(C)cc(OCC2CNC(=O)O2)c1", "note": "(centres unmarked) [metaxalone, 5-[(3,5-dimethylphenoxy)methyl]-2 oxazolidinone]", "values": [{"measurement": "Variability of the fasted PK parameters explained by age", "setting": "fasted", "value": "more than 25%"}, {"measurement": "Pearson correlation, age vs ln(AUC(inf))", "setting": "fasted, n=103", "value": 0.513}, {"measurement": "Pearson correlation, age vs ln(AUC(last))", "setting": "fasted, n=103", "value": 0.522}, {"measurement": "Pearson correlation, age vs ln(Cmax)", "setting": "fasted, n=103", "value": 0.600}, {"measurement": "Spearman correlation, age vs ln(AUC(inf))", "setting": "fasted, n=103", "value": 0.514}, {"measurement": "Spearman correlation, age vs ln(AUC(last))", "setting": "fasted, n=103", "value": 0.522}, {"measurement": "Spearman correlation, age vs ln(Cmax)", "setting": "fasted, n=103", "value": 0.635}, {"measurement": "Pearson correlation, age vs ln(AUC(inf))", "setting": "fasted, females n=42", "value": 0.582}, {"measurement": "Pearson correlation, age vs ln(AUC(last))", "setting": "fasted, females n=42", "value": 0.596}, {"measurement": "Pearson correlation, age vs ln(Cmax)", "setting": "fasted, females n=42", "value": 0.607}, {"measurement": "Spearman correlation, age vs ln(AUC(inf))", "setting": "fasted, females n=42", "value": 0.596}, {"measurement": "Spearman correlation, age vs ln(AUC(last))", "setting": "fasted, females n=42", "value": 0.601}, {"measurement": "Spearman correlation, age vs ln(Cmax)", "setting": "fasted, females n=42", "value": 0.638}, {"measurement": "Pearson correlation, age vs ln(AUC(inf))", "setting": "fasted, males n=61", "value": 0.441}, {"measurement": "Pearson correlation, age vs ln(AUC(last))", "setting": "fasted, males n=61", "value": 0.447}, {"measurement": "Pearson correlation, age vs ln(Cmax)", "setting": "fasted, males n=61", "value": 0.567}, {"measurement": "Spearman correlation, age vs ln(AUC(inf))", "setting": "fasted, males n=61", "value": 0.499}, {"measurement": "Spearman correlation, age vs ln(AUC(last))", "setting": "fasted, males n=61", "value": 0.501}, {"measurement": "Spearman correlation, age vs ln(Cmax)", "setting": "fasted, males n=61", "value": 0.599}, {"measurement": "Variability of the fed PK parameters explained by age", "setting": "fed", "value": "≤ 5", "unit": "%"}, {"measurement": "Pearson correlation, age vs ln(AUC(inf))", "setting": "fed, n=103", "value": 0.237}, {"measurement": "Pearson correlation, age vs ln(AUC(last))", "setting": "fed, n=103", "value": 0.229}, {"measurement": "Pearson correlation, age vs ln(Cmax)", "setting": "fed, n=103", "value": 0.040}, {"measurement": "Spearman correlation, age vs ln(AUC(inf))", "setting": "fed, n=103", "value": 0.281}, {"measurement": "Spearman correlation, age vs ln(AUC(last))", "setting": "fed, n=103", "value": 0.276}, {"measurement": "Spearman correlation, age vs ln(Cmax)", "setting": "fed, n=103", "value": 0.086}, {"measurement": "Pearson correlation, age vs ln(AUC(inf))", "setting": "fed, females n=42", "value": 0.436}, {"measurement": "Pearson correlation, age vs ln(AUC(last))", "setting": "fed, females n=42", "value": 0.408}, {"measurement": "Pearson correlation, age vs ln(Cmax)", "setting": "fed, females n=42", "value": 0.258}, {"measurement": "Spearman correlation, age vs ln(AUC(inf))", "setting": "fed, females n=42", "value": 0.432}, {"measurement": "Spearman correlation, age vs ln(AUC(last))", "setting": "fed, females n=42", "value": 0.410}, {"measurement": "Spearman correlation, age vs ln(Cmax)", "setting": "fed, females n=42", "value": 0.202}, {"measurement": "Pearson correlation, age vs ln(AUC(inf))", "setting": "fed, males n=61", "value": 0.023}, {"measurement": "Pearson correlation, age vs ln(AUC(last))", "setting": "fed, males n=61", "value": 0.022}, {"measurement": "Pearson correlation, age vs ln(Cmax)", "setting": "fed, males n=61", "value": "−0.170"}, {"measurement": "Spearman correlation, age vs ln(AUC(inf))", "setting": "fed, males n=61", "value": 0.187}, {"measurement": "Spearman correlation, age vs ln(AUC(last))", "setting": "fed, males n=61", "value": 0.188}, {"measurement": "Spearman correlation, age vs ln(Cmax)", "setting": "fed, males n=61", "value": "−0.001"}]}]}
